Experiments:
[1] = system: DRG neurons; experiment: Calcium imaging in cultured DRG neurons of Pirt-GCaMP3 mice; assay type: cell-based, mouse; settings: histamine 500 μM, CQ 1,000 μM, AITC 200 μM; for DRG neurons showing Ca2+ increase / responses: miR-711 50 μM, 544 neurons from 3 mice
Procedure: (§1) Primary Cultures of Mouse and Human Sensory Neurons. […] Cells were mechanically dissociated with a flame polished Pasteur pipette in the presence of 0.05% DNase I (Sigma).
(§2) Ca^2+ Imaging. […] The imaging buffer includes 140 mM NaCl, 10 mM D-(+)-Glucose, 1 mM MgCl2, 2 mM CaCl2, 5 mM KCl, 10 mM HEPES, pH=7.4, osmolarity=320 mOsm/L. Calcium signals were measured using green emitted light in a 3 s interval. Ca ^2+ signal amplitudes were presented as ΔF/F0=(Ft−F0)/F0 as ratio of fluorescence difference (Ft−F0) to basal value (F0). The average fluorescence intensity in the baseline period was taken as F0. Ca ^2+ imaging was also analyzed in HEK293-TRPA1 cell line after loading cells with […] fura2-AM (Invitrogen) for 40 min in the Ca^2+ imaging buffer. Ca^2+ imaging protocol was a ratio metric method with 340/380-nm wavelength light for dual excitation. Data were presented as ΔR/R0, determined as the fraction ΔR (Rt−R0) of the increase of a given ratio over baseline ratio (R0).

[2] = system: TG neurons; experiment: Calcium imaging in TG neurons of Pirt-GCaMP3 mice; assay type: cell-based, mouse; settings: histamine 500 μM, CQ 1000 μM, AITC 200 μM; for TG neurons responding (calcium): miR-711 50 μM, 204 neurons
Procedure: as §1, §2

[3] = system: CTCL mice; experiment: Mouse CTCL xenograft model of chronic itch; assay type: in vivo; settings: given 20 days after Myla cell inoculation; hsa-miR-711 inhibitor 100 μM, HC030031 200 μM, A967079 50 μM, peptides 2 mM
Procedure: Mouse CTCL Xenograft Model of Chronic Itch. We developed a murine xenograft model of cutaneous T cell lymphoma (CTCL) using immune-deficient mice (NOD.CB17-Prkdcscid, 8-10 weeks old, male). CD4^+ MyLa cell line was purchased from Sigma (Ca #95051032). The cell line was established from a plaque biopsy of a person with mycosis fungoides stage II by inclusion of IL-2 and IL-4 in the culture medium. CTCL was generated via intradermal injection of CD4^+ Myla cells (1×10^5 cells/μl, 100 μL) on the nape of the neck. Tumor growth was assessed for 40 days by measurements of tumor diameters.
(§3) Behavioral Assessment for Scratching (Itch) and Wiping (Pain). Mice were shaved on the cheek or nape after a brief anesthesia with isoflurane. Before experiments, mice were habituated in small plastic chambers (14×18×12 cm) daily for two days. The room temperature and humidity remained stable for all the experiments. […] After the injection, the number of scratches in 60 min was counted. A scratch was counted when a mouse lifted its hind paw to scratch the shaved region and returned the paw to the floor or to the mouth. A bout of wiping was defined as a continuous wiping movement with a forepaw directing at the area of the injection area (Shimada and LaMotte, Pain 2008, 139, 681-687). Scratching and wiping behavior was videoed for 30 min or 60 min using Sony HDR-CX610 camera. The video was subsequently played back offline and the numbers of scratches and wipes were quantified in a blinded manner.
Generation of Myla Stable Cell Line Expressing miR-711 Inhibitor. CD4^+ Myla cells were plated at a density of 2×10^5 cells/mL in 2 mL culture media in 6-well plates. For each well, 20 μL of the MISSION Lenti microRNA Inhibitor (hsa-miR-711) lentivirus (Sigma) with a titer of 2.6×10^7 Tu/mL were added. Cell mixtures were incubated at 37° C. for 48 hr, washed with PBS three times, and re-suspended in fresh culture media, and 24 hr later, 1 μg/mL puromycin was added to the cells to select stably transduced cell populations. We tried to grow and passage the cells as much as necessary (usually 3 days) and maintained selection pressure by keeping 1 μg/mL puromycin in the medium. After 4 weeks, a large number of the cells were killed; the remaining cells retained the expression of the plasmid, which stably integrates into the genome of the targeted cells. These cells were used for inoculation to generate the CTCL model for testing the effects of miR-711 inhibitor on chronic itch and tumor growth.

[4] = system: naive mice; assay type: in vivo, mouse; settings: naive mice; for scratching (itch) after intradermal cheek injection / wiping (pain) after intradermal cheek injection: 1 mM, 5 μL
Procedure: as §3

[5] = molecular target: hTRPA1 (Homo sapiens, UniProt O75762); experiment: Whole-cell patch clamp, inward currents in HEK293 cells expressing hTRPA1; assay type: cell-based; settings: bath application; miRNAs and core sequence 10 μM, AITC 50 μM
Chain of hTRPA1 (O75762 whole entry): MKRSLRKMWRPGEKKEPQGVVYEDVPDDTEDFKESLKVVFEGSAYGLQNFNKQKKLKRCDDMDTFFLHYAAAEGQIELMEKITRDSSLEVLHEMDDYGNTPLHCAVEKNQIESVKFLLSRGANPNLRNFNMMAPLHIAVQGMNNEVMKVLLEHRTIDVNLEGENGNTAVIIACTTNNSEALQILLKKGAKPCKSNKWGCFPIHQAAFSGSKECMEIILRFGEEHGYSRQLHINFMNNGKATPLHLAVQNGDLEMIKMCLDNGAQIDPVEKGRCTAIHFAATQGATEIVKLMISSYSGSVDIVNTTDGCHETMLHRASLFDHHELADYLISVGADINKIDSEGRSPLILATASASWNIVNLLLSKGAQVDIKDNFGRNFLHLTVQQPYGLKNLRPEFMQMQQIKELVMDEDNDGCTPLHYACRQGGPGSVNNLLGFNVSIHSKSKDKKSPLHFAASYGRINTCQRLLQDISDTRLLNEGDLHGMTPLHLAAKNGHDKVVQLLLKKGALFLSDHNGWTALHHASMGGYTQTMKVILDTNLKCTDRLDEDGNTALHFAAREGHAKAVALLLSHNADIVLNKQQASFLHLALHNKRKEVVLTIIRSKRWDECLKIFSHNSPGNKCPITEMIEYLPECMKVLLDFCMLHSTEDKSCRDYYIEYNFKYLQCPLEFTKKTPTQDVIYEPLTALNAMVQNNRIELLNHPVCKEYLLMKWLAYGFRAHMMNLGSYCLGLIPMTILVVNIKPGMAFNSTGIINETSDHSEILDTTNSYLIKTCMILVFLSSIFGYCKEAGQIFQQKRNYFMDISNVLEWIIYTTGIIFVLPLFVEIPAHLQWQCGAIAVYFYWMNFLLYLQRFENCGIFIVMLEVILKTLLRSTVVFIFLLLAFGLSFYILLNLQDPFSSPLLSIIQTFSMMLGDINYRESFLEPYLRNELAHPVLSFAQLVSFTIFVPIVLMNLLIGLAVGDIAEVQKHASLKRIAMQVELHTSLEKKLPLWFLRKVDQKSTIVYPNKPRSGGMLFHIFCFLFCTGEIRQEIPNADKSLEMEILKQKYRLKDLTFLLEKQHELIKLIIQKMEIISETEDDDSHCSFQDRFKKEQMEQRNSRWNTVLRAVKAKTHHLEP
Procedure: Cell Culture and Transfection. CD4^+ Myla cell line was cultured in RPMI 1640 media (GIBCO), supplemented with 2 mM Glutamine (GIBCO), 100 U/mL IL-2 (Sigma), 100 U/mL IL-4 (Sigma), and 10% human AB serum (Sigma). HuT 102 cell line was cultured in RPMI 1640 supplemented with pyruvate, HEPES, and 10% (v/v) fetal bovine serum (HyClone). HEK293-hTRPA1 stable cell line was cultured in MEM (GIBCO) containing 2 mM Glutamine, 4 μg/mL Blasticidin, 10% FBS (v/v). B16 and CHO cells were cultured in high glucose (4.5 g/L) Dulbecco's Modified Eagle's Medium (GIBCO) containing 10% (v/v) fetal bovine serum (GIBCO). Culture media were supplemented with 50 units/mL of penicillin and 50 μg/mL streptomycin, and cultures were maintained with 5% CO2 in 37° C. incubator. Transfection (2 μg cDNA) was performed with Lipofectamine™ 2000 Reagent (Invitrogen) at 80% confluency and the transfected cells were cultured in the same media for 48 hr before electrophysiological and biochemical studies.
Whole-Cell Patch Clamp Recordings in HEK293 Cells, CHO Cells, and DRG Neurons. Whole-cell patch clamp recordings were performed at room temperature using an Axopatch-200B amplifier (Axon Instruments) with a Digidata 1440B (Axon Instruments). In this study, we only examined small-diameter mouse DRG neurons (<25 μM) and small-diameter human DRG neurons (<55 μM). The patch pipettes were pulled from borosilicate capillaries (World Precision Instruments) using a P-97 Flaming/Brown micropipette puller (Sutter Instrument). Pipette resistance was 4-6 MΩ for whole-cell and outside-out recording. For inward current recordings in mouse and human DRG neurons, HEK293 cells, and CHO cells, the internal solution contains (in mM): 140 CsCl, 10 EGTA, 10 HEPES, and 2 Mg-ATP, adjusted to pH 7.3 with CsOH. Whole cell recordings were performed in an extracellular solution that contains (in mM): 140 NaCl, 5 KCl, 2 MgCl2, 10 HEPES, and 10 glucose, adjusted to pH 7.4 with NaOH and osmolarity to 300-310 mOsm. […] Action potential recordings were performed in small-diameter DRG neurons, with the following solutions: i) internal pipette solution contains: 126 mM K-gluconate, 10 mM NaCl, 1 mM MgCl2, 10 mM EGTA, 10 mM HEPES and 2 mM Na-ATP, adjusted to pH 7.4 with KOH and osmolarity to 295-300 mOsm), and ii) extracellular solution contains: 140 mM NaCl, 5 mM KCl, 2 mM MgCl2, 2 mM CaCl2, 10 mM HEPES, 10 mM glucose, adjusted to pH 7.4 with KOH.

[6] = system: human DRG neurons; experiment: Whole-cell patch clamp, inward currents in human DRG neurons; assay type: cell-based; settings: 10 μM; small diameters
Procedure: Non-diseased human DRGs were obtained from donors through National Disease Research Interchange (NDRI) with permission of exemption from the Duke University Institutional Review Board (IRB). Postmortem L3-L5 DRGs were dissected from 4 donors and delivered in ice cold culture medium to the laboratory at Duke University within 24-72 hr of the donor's death. Upon the delivery, DRGs were rapidly dissected from nerve roots and minced in a calcium-free HBSS (GIBCO). Human DRG cultures were prepared as previously reported (Chang et al., Neurosci. Bull. 2018, 34, 4-12; Han et al., Neuron 2016, 92, 1279-1293). DRGs were digested at 37° C. in a humidified CO2 incubator for 120 min with collagenase Type II (Worthington, 290 units/mg, 12 mg/mL final concentration) and dispase II (Roche, 1 unit/mg, 20 mg/mL) in PBS with 10 mM HEPES, pH adjusted to 7.4 with NaOH. DRGs were mechanically dissociated using fire-polished pipettes, filtered through a 100 μm nylon mesh and centrifuged (500 g for 5 min). The pellet was resuspended, plated on 0.5 mg/mL poly-D-lysine-coated glass coverslips, and grown in Neurobasal medium supplemented with 10% FBS, 2% B-27 supplement, and 1% penicillin/streptomycin. Whole-cell patch-clamp recordings in small (<[…]) human DRG neurons were conducted at room temperature using patch pipettes with resistances of 3-4 MΩ.
Whole-Cell Patch Clamp Recordings in HEK293 Cells, CHO Cells, and DRG Neurons. Whole-cell patch clamp recordings were performed at room temperature using an Axopatch-200B amplifier (Axon Instruments) with a Digidata 1440B (Axon Instruments). In this study, we only examined small-diameter mouse DRG neurons (<25 μM) and small-diameter human DRG neurons (<55 μM). The patch pipettes were pulled from borosilicate capillaries (World Precision Instruments) using a P-97 Flaming/Brown micropipette puller (Sutter Instrument). Pipette resistance was 4-6 MΩ for whole-cell and outside-out recording. […]

[7] = system: mice; experiment: Back model: intradermal nape injection, scratching; assay type: in vivo, mouse; settings: 1 mM, 10 μL
Procedure: as §3

CCN(CC)CCCC(C)Nc1ccnc2cc(Cl)ccc12 (centres unmarked) [CQ, chloroquine]
miR-711-responsive DRG neurons that also responded [1]: 66.7%
DRG neurons showing Ca2+ increase / responses [1]: 5.1%
miR-711-responsive TG neurons that also responded [2]: 76%
TG neurons responding (calcium) [2]: 9.3%

CC(C)c1ccc(NC(=O)Cn2cnc3c2c(=O)n(C)c(=O)n3C)cc1 [HC30031, 2-(1,3-Dimethyl-2,6-dioxo-1,2,3,6-tetrahydro-7H-purin-7-yl)-N-(4-isopropylphenyl)acetamide]
effect on CTCL-evoked chronic itch [3]: suppressed

NCCc1c[nH]cn1 [histamine]
miR-711-responsive DRG neurons that also responded [1]: 61.9%
DRG neurons showing Ca2+ increase / responses [1]: 5.5%
miR-711-responsive TG neurons that also responded [2]: 52%
TG neurons responding (calcium) [2]: 6.9%

AAAAAAA: Mmu-miR-711 mutant: aaaaaaa (SEQ ID NO: 17) (listed as RNA, chemistry not given here)
scratching after intradermal injection of 7-nucleotide oligos [4]: did not affect
wiping after intradermal injection of 7-nucleotide oligos [4]: did not affect

GGGACCC: mmu-miR-711 core: gggaccc (SEQ ID NO: 1) (listed as RNA, chemistry not given here)
scratching after intradermal injection of 7-nucleotide oligos [4]: sufficient to elicit scratching
wiping after intradermal injection of 7-nucleotide oligos [4]: not wiping
inward currents [5]: inward currents induced

hsa-miR-642b-3p: hsa-miR-642b-3p: agacacauuuggagagggaccc (SEQ ID NO: 10) (AGACACAUUUGGAGAGGGACCC; listed as RNA, chemistry not given here)
scratching (itch) after intradermal cheek injection [4]: resulted in pruritus
wiping (pain) after intradermal cheek injection [4]: failed to elicit wiping
inward currents in human DRG neurons [6]: induced similar inward currents

hsa-miR-711: hsa-miR-711: gggacccagggagagagacguaag (SEQ ID NO: 9) (GGGACCCAGGGAGAGAGACGUAAG; listed as RNA, chemistry not given here)
scratching (itch) after intradermal cheek injection [4]: able to evoke pruritus
wiping (pain) after intradermal cheek injection [4]: failed to elicit wiping
inward currents in human DRG neurons [6]: evoked TRPA1-dependent inward currents

m1: mutant of miR-711: aaaacccggggagagauguaag (SEQ ID NO: 11) (AAAACCCGGGGAGAGAUGUAAG; listed as RNA, chemistry not given here)
scratching (itch) after intradermal cheek injection [4]: marked reduction in scratching

m2: mutant of miR-711: gggaaaaggggagagauguaag (SEQ ID NO: 12) (GGGAAAAGGGGAGAGAUGUAAG; listed as RNA, chemistry not given here)
scratching (itch) after intradermal cheek injection [4]: marked reduction in scratching

miR-155: mmu-miR-155: uuaaugcuaauugugauaggggu (SEQ ID NO: 7) (UUAAUGCUAAUUGUGAUAGGGGU; listed as RNA, chemistry not given here)
scratching after intradermal injection on the nape of neck [7]: no effects
wiping (pain) after intradermal cheek injection [4]: Neither did

miR-326: mmu-miR-326: gggggcagggccuuugugaaggcg (SEQ ID NO: 8) (GGGGGCAGGGCCUUUGUGAAGGCG; listed as RNA, chemistry not given here)
scratching after intradermal injection on the nape of neck [7]: no effects
wiping (pain) after intradermal cheek injection [4]: Neither did

Reference: patent US20210283163A1, “COMPOSITIONS AND METHODS FOR THE TREATMENT OF ACUTE AND CHRONIC PRURITIS” (Duke University, priority 2018, published 2021)
